This is an account of results in article PMC3893781, “Triterpenoid Saponins Isolated from Platycodon grandiflorum Inhibit Hepatitis C Virus Replication” (Evidence-based Complementary and Alternative Medicine : eCAM, 2013).

Data set [1] deals with HCV replicon cells (genotype 1b). Kind of data set: In vitro combination studies (CalcuSyn combination index). It counts as cell-based, HCV genotype 1b. The conditions noted are these: in combination with PGSM; for Combination Index at EC50 / Combination Index at EC75 / Combination Index at EC90: 72 h, CalcuSyn; for Effect of combination: CI < 1 synergistic. How it is done: HCV Replicon cells were treated with various concentrations of inhibitors in twofold serial dilutions at a final dimethyl sulfoxide concentration of 1% including titrations of each of the compounds alone as reference controls. […] At three days after treatments, intracellular HCV RNA levels were determined by qRT-PCR. For the Loewe additive model, the experimental data were analyzed by using CalcuSyn (Biosoft, Ferguson, Mo.), a computer program based on the method of Chou and Talalay. A combination index (CI) value for each experimental combination was calculated by a quantitative measure of the degree of drug interaction in terms of additive effect (CI = 1), synergism (CI < 1), or antagonism (CI > 1) for a given endpoint of the effect measurement.

Data set [2] concerns the target T1, HCV NS5B polymerase (NS5BCΔ21) (Hepatitis C virus genotype 1b, UniProt Q9WMX2).
T1 construct: HCV NS5B polymerase from HCV genotype 1b carrying an N-terminal GST-tag and C-terminal 21-amino acid truncation (NS5BCΔ21); made in house; host or cells: Escherichia coli
Kind of data set: RdRp assay with recombinant HCV NS5B polymerase. It counts as biochemical, HCV genotype 1b. How it is done: Recombinant HCV NS5B polymerase from HCV genotype 1b carrying an N-terminal GST-tag and C-terminal 21-amino acid truncation (NS5BCΔ21) was expressed in Escherichia coli and purified as previously described with some modifications. The colorimetric reverse transcriptase assay kit (Roche Applied Science) was applied to perform RdRp assay. The inhibition of HCV RdRp activity was determined by the amount of double-stranded RNA synthesized by the recombinant NS5BΔC21 in the presence of various test compounds using HCV 3′-UTR as a template.

In a further data set the target is T2, HCV NS3/4A protease (Hepatitis C virus genotype 1b, UniProt Q9WMX2).
T2 construct: HCV-NS3/4A protease purified from E. coli; host or cells: E. coli
Kind of data set: biochemical. It counts as biochemical. The conditions noted are these: FRET peptide substrate; read-out: HCV enzyme (IC50) HCV NS3/4A. As to the method: The NS3/4A serine protease assay was performed using a HCV protease assay kit (SensoLyte, AnaSpec, Fremont, CA) according to the manufacturer's instructions. Briefly, HCV-NS3/4A protease purified from E. coli was mixed with the test compound in the assay buffer. After 15 min incubation at room temperature, EDANS/DABCYL-based fluorescence resonance energy transfer (FRET) peptide substrate solution was added and mixed. The FRET substrate was cleaved specifically by HCV NS3/4A protease, thereby liberating the C-terminal peptide-fluorophore fragment from the proximity quenching effect of the dark quencher, resulting in increase of fluorescence. The fluorescence intensity was measured immediately and continuously at excitation/emission at 340 nm and 490 nm.

Data set [3] deals with HCV subgenomic replicon (genotype 1b) in Huh7 cells. Briefly: Anti-HCV assay in HCV replicon cells (qRT-PCR). The conditions noted are these: Hepatitis C virus, Huh-7, 72 h, read-out: Inhibition of HCV RNA replication (EC50) CON1 (genotype 1b). It counts as cell-based, HCV genotype 1b. As to the method:
Huh7 cells harboring HCV subgenomic replicon (genotype 1b) were maintained in the presence of 0.25 mg/mL G418 (Invitrogen, Carlsbad, CA). HCV replicon cells were seeded at a density of 1 × 10^4 cells/well in a 96-well plate and incubated at 37°C and 5% CO2. Following 24 h incubation, the culture medium was replaced with a medium containing serially diluted test compounds in the presence of 2% FBS and 1% DMSO. After cells were treated for 72 h with PGMS and triterpenoid saponins, total RNAs were extracted using a CellAmp Direct RNA Prep Kit (Korea Biomedical, Seoul, Korea). The HCV RNA levels were quantified by a quantitative real-time polymerase chain reaction (qRT-PCR) assay using IQ5 real-time PCR detection system (Bio-Rad, Hercules, CA, USA) with HCV-specific primers (5′-GACACTCCACCATAGATCACTC-3′ and 5′-CCC AAC ACT ACT CGG CTA G-3′) and probe (5′-FAM-CCCAAATCTCCAGGCATTGAGCGG-3′ BHQ-1). Results were normalized to glyceraldehyde-3-phosphate dehydrogenase gene (GAPDH). Anti-HCV activity was determined by HCV RNA levels in compound-treated cells as compared to mock-treated cells.
Background: A replicon is a self-replicating genome or part of one, used to study replication in cells.

Data set [4] deals with JFH1 viruses (HCV genotype 2a) in Huh7 cells. Kind of data set: Anti-HCV assay in HCVcc-infected cells (qRT-PCR). It is filed as cell-based. The note with it: Hepatitis C virus, Huh-7, 48 h, read-out: Inhibition of HCV RNA replication (EC50) JHF-1 (genotype 2a). How it is done:
Infectious JFH1 viruses (HCV genotype 2a) were generated as described previously. Huh7 cells were seeded in 24-well plates at a density of 5 × 10^4 cells per well. At 24 h after plating, cells were infected with JFH1 viruses for 2 h. After incubation, the supernatants were replaced with fresh medium. Increasing concentrations of PGMS and its triterpenoid saponins were added in a medium containing 2% DMSO, and cells were incubated at 37°C. At 48 h after infection, total RNAs were extracted and the HCV RNA levels were quantified by qRT-PCR assay. Anti-HCV activity was determined by HCV RNA levels in compound-treated cells as compared to mock-treated cells.
(In general: Real-time PCR tracks product formation cycle by cycle.)

The nature of data set [5]: Cell viability assay (MTT). It is filed as cell-based. The note with it: human, Huh7 cells, read-out: Cytotoxicity (CC50). As to the method:
Cell viability was determined by the colorimetric 3-(4,5-dimethylthiazol-2-yl)-2,5-diphenyltetrazolium bromide (MTT) reagent (Promega Corporation) according to the manufacturer's instructions. The absorbance was detected at 570 nm using a Bio-Tek plate reader (Bio-Tek instrument, Weymouth, MA).

Data set [6] relates to HCV subgenomic replicon cells (genotype 1b). Kind of data set: Anti-HCV assay for 14 days. It counts as cell-based, HCV genotype 1b. As to the method: HCV replicon cells were plated at 2 × 10^5 cells per well in a 6-well plate. Each compound was serially diluted in DMEM containing 10% FBS and 0.2% DMSO as reported previously. Culture media were replaced with fresh medium and compounds every 3 days. Cells were harvested at 3, 6, 9, and 14 days and intracellular HCV RNA levels were analyzed by qRT-PCR. The relative copy number of HCV RNA per cell was calculated by comparing RNAs in cells treated with each compound with those RNAs in cells treated with 0.2% DMSO.

Data set [7] concerns Huh7 cells harboring HCV subgenomic replicon (genotype 1b). Kind of data set: Colony forming assay. It is filed as cell-based, HCV genotype 1b. The conditions noted are these: 5 U/mL of IFN-α alone, three weeks, G418.
Excerpt: G418 was included in the media to provide selective pressure on HCV replicon cells. After three weeks of treatment, surviving cells were stained with crystal violet [23].
Setting [8] is: read-out: HCV enzyme (IC50) HCV NS5B RdRp activity, recombinant NS5B, HCV 3′-UTR template.

pIC50: −log10 of the molar value. Converted amounts (≈) assume the structure as drawn. Read-outs that look alike come from different tables or passages of the source. Where only a bound is given, the exact number is not on record here.

For `COC(=O)N[C@H](C(=O)N1CCC[C@H]1c1nc(-c2ccc(-c3ccc(-c4c[nH]c([C@@H]5CCCN5C(=O)[C@@H](NC(=O)OC)C(C)C)n4)cc3)cc2)c[nH]1)C(C)C` [BMS790052, Daclatasvir], in data set [1], the “Combination Index at EC50” value is 0.41, the “Combination Index at EC75” value is 0.42, the “Combination Index at EC90” value is listed as 0.44 and the Effect of combination entry was “Synergistic”.

For the compound `CC1OC(OC2C(OC(=O)C34CCC(C)(C)CC3C3=CCC5C6(C)CC(O)C(OC7OC(CO)C(O)C(OC8OC(CO)C(O)C(O)C8O)C7O)C(CO)(CO)C6CCC5(C)C3(C)CC4O)OC(CO)C2O)C(O)C(O)C1OC1OCC(O)C(O)C1O` (stereo not drawn) [Deapioplatycodin D2, deapioplatycodin D2], the pIC50 in data set [2] (setting [8]) is 5.10; on HCV NS3/4A protease, below 4.10. Further, the values for the EC50 in data set [3] and in data set [4] were 0.89 µg/mL (≈ 0.709 µM) and 8 µg/mL (≈ 6.37 µM), respectively. In addition, the CC50 in data set [5] was determined as 100 µg/mL (≈ 79.7 µM).

As to `C[C@@H]1O[C@@H](O[C@H]2[C@H](OC(=O)[C@]34CCC(C)(C)C[C@H]3C3=CC[C@@H]5[C@@]6(C)C[C@H](O)[C@H](O[C@@H]7O[C@H](CO)[C@@H](O)[C@H](O[C@@H]8O[C@H](CO)[C@@H](O)[C@H](O)[C@H]8O)[C@H]7O)C(CO)(CO)[C@@H]6CC[C@@]5(C)[C@]3(C)C[C@H]4O)OC[C@H](O)[C@@H]2O)[C@H](O)[C@H](O)[C@H]1O[C@@H]1OC[C@@H](O)[C@H](O[C@@H]2OC[C@](O)(CO)[C@H]2O)[C@H]1O` [Platycodin D2, platycodin D2], the pIC50 is 5.36 in data set [2] and below 4.14 at HCV NS3/4A protease. Further, the values for the EC50 in data set [3] and in data set [4] were 1.05 µg/mL (≈ 0.757 µM) and 12 µg/mL (≈ 8.65 µM), respectively. Moreover, in data set [5], the CC50 amounted to 25 µg/mL (≈ 18 µM).

As for `CC1OC(OC2C(OC(=O)C34CCC(C)(C)CC3C3=CCC5C6(C)CC(O)C(OC7OC(COC8OC(CO)C(O)C(O)C8O)C(O)C(O)C7O)C(CO)(CO)C6CCC5(C)C3(C)CC4O)OC(CO)C2O)C(O)C(O)C1OC1OCC(O)C(OC2OCC(O)(CO)C2O)C1O` (stereo not drawn) [Platycodin D3, platycodin D3], the figures for the pIC50 (in data set [2] (setting [8]); on HCV NS3/4A protease) were 5.24 and below 4.14, respectively. In addition, the EC50 in data set [3] amounted to 2.33 µg/mL (≈ 1.68 µM); in data set [4], 27 µg/mL (≈ 19.5 µM). Also, the CC50 in data set [5] turned out to be 100 µg/mL (≈ 72.1 µM).

In the case of `C[C@@H]1O[C@@H](O[C@H]2[C@H](OC(=O)[C@]34CCC(C)(C)C[C@H]3C3=CC[C@@H]5[C@@]6(C)C[C@H](O)[C@H](O[C@@H]7O[C@H](CO)[C@@H](O)[C@H](O)[C@H]7O)C(CO)(CO)[C@@H]6CC[C@@]5(C)[C@]3(C)C[C@H]4O)OC[C@H](O)[C@@H]2O)[C@H](O)[C@H](O)[C@H]1O[C@@H]1OC[C@@H](O)[C@H](O[C@@H]2OC[C@](O)(CO)[C@H]2O)[C@H]1O` [Platycodin D, platycodin D], the pIC50 was 5.39 in data set [2] and below 4.09 on HCV NS3/4A protease. Further, the EC50 in data set [3] is 0.35 µg/mL (≈ 0.286 µM); in data set [4] it was 3 µg/mL (≈ 2.45 µM). Besides, the CC50 in data set [5] came to 25 µg/mL (≈ 20.4 µM).

As for `CC(C)(C)OC(=O)N[C@H]1CCCCC/C=C\[C@@H]2C[C@@]2(C(=O)NS(=O)(=O)C2CC2)NC(=O)[C@@H]2C[C@@H](OC(=O)N3Cc4cccc(F)c4C3)CN2C1=O` [R7227, Danoprevir], in data set [1], the “Combination Index at EC50” value was 0.72, the “Combination Index at EC75” value is listed as 0.71, the “Combination Index at EC90” value was 0.70 and the Effect of combination entry is “Synergistic”.

As for IFN-α, in data set [1], the “Combination Index at EC50” value was 0.45, the “Combination Index at EC75” value is 0.39, the “Combination Index at EC90” value is 0.34 and the Effect of combination result is “Synergistic”. In addition, in data set [6] (IFN-α 10 U/mL), the “Reduction of HCV RNA levels” value is reported as 0.4 log10. Also, the “Reduction of HCV RNA levels” value in data set [6] (IFN-α 50 U/mL) is 0.8 log10. Besides, the “Reduction of HCV RNA levels” value in data set [6] (IFN-α 100 U/mL) is on record as 1.5 log10. Also, the “Colony formation of HCV replicons” value in data set [7] is listed as “unable to inhibit colony formation”.

By EC50 is commonly meant the midpoint of the concentration-response curve. A word on the CC50: it is the concentration that lowers cell viability or growth by half.
